Where two headings read alike, the source gives them in different places. Marks after values point to notes of the source that are not given here.

Assay [1] relates to pentobarbital-anesthetized normotensive rats. The following applies: mean ± S.E. (n=6). On the procedure:
A male Wistar Strain, weighing 300˜450 grams, is administered with 40 mg/kg of pentobarbital sodium via hypodermic syringe for anesthesia before implementing trachea dissection and inserting respiratory tube to ensure the animal maintains smooth breath during operation, while also facilitating emergency rescue. The tube insertion is done with a polyethylene tube (PE50), with inner diameter of […] and outer diameter of 0.97 mm, on the femoral vein to facilitate administering medication during the experiment; a 3-way stopcock is used by connecting one end to the medicated bottle, while the other end is connected to the saline solution bottle, thus some saline solution can be injected right after administering the medication to prevent the medication from lingering in the polyethylene tube (PE50) that may affect the accuracy of the experiment. The left artery is also inserted with the polyethylene tube(PE50) by using the same 3-way stopcock with one end connected to heparin solution as the polyethylene tube (PE50) is equipped with a valve to clear any blockage in the path; the other end is connected to disposable diaphgram dome (TA1019), which is then connected to the data converter, and through an amplifier, and then finally through the recorder to record the medication's impact on the male Wistar Strain's blood pressure and heartbeat. The Wistar Strain is given different dosages of test medication in 1.0, 1.5, 3.0 mg/kg respectively through intravenous injection to examine the medication's effects on heartbeat and blood pressure.

The subject of assay [2] is isolated guinea pig thoracic aorta. The following applies: 10 μM L-phenylephrine contraction, mean ± S.E. (n=6). From the text: A 300-450 gram guinea pig is obtained, and forcefully hit at the head, and blood drained from the artery at the neck to quickly retrieve the main chest artery, which is placed in chilled Kreb solution and the fatty tissue clung to the vicinity of the blood vein is carefully removed, and then the main chest artery is trimmed to a circular shape of approximately 5 mm. Two S-shaped platinum threads are used to stabilize the top and bottom of the main artery before placing it in a 10-milliliter organ tank with 95% oxygen and 5% carbon dioxide mixed gas. One end is connected to the bottom of the organ tank, and the other end connected to the force transducer, and a recorder is used to record the isometric contraction. The specimen is given one gram of tension, and after balancing for 60 minutes, 10 μM of phenylephrine is prescribed to test the vivacity of the main chest artery. Upon balancing and the phenylephrine rinsed off, 10 μM of phenylephrine is used again to achieve the maximum contraction. And upon balancing, different concentration of synthetic testing compounds are used, 10^−5 M, 10^−6 M, or 10^−7 M, to observe the suppressing effects resulted from different concentrations of synthetic testing compounds.

The test system of assay [3] is β1-adrenoceptor. Particulars: versus isoproterenol, pulsating rate of right atrium; Schild plot regression; six to eight experiments. The source says: A 300˜450 gram guinea pig is obtained and hit forcefully at the head to put it into comatose, the artery at the neck is cut to release the blood, then the chest is immediately cut open, and the heart quickly retrieved and placed in Krebs solution that is connected to mixed gas(95% oxygen, 5% carbon dioxide), and the left, right auricles separated. The right auricle, which is pulsating in reflex action, is pinned down on both ends by a frog-heart tweezer, and one end stabilized at the bottom and placed in an organ rinser filled with 10 milliliter of Krebs solution with the mixed gas, and the temperature maintained at 32.5[…]; the other end is connected to the force transducer, and the isometric contractions and pulsating frequency are recorded through the Coulbourn At-High-Speed Videograph. The specimen is given tension between 100-150 milligrams, and upon balancing, the following experiment is conducted:
In order to evaluate the degree of vivacity of the β-blockade on the synthetic compounds, for each detached auricle in reflex pulsation, upon balancing(approximately 60 minutes), the cumulative-concentration curve of the β-agonist isoproterenol is completed twice separately. The experiment is designed as follows: <1>The first curve indicates direct application of isoproterenol from low concentration to high using 0.5 log unit to gradually increase until it reaches the maximum reaction; this is the control unit. <2>the second curve is the experimental unit. Different concentrations of synthetic testing compounds(10^−7 M, 10^−6 M, or 10^−5 M), from low concentration to high, are given 30 minutes to react before isoproterenol is used to complete the cumulative prescription. The EC50 value is obtained from observation of the suppressing effects generated from different concentrations of synthetic testing compounds.
According to the method used by Arunlakshana and Schild in 1959, the corresponding values of the synthetic testing compounds are used as the horizontal coordinate, and the corresponding values on the first derivative of the dose ratio are used as the vertical coordination, the values obtains are graphed and linear regression is implemented to obtain a regressed straight-line horizontal coordinate's extracted distance value, which is the pA2 value for this particular synthetic testing compound.

The test system of assay [4] is β1-adrenoceptor. Particulars: versus isoproterenol, contraction of left atrium; Schild plot regression; six to eight experiments. As for the experimental part: The stimulating frequency is 0.5 Hz, resting tension is 0.5 grams. Upon balancing(approximately 50 minutes) the following experiment is conducted;
(a) Completion of the cumulative concentration-response curves, which is similar to the experimenting methods use on the same detached right auricle.
(b) The calculation of pA2 value is same as the calculation method used in the experiment of the detached right auricle.

Assay [5] addresses T1, β2-adrenoceptor (Cavia porcellus, UniProt Q8K4Z4).
T1 construct: from tissue; host or cells: isolated guinea pig trachea (spiral strips, reserpine-pretreated animal)
As to the kind of experiment: β2 adrenergic blockade against isoproterenol, isolated guinea pig respiratory tract (Schild plot). Particulars: versus isoproterenol relaxation of detached respiratory tract; Schild plot regression. On the procedure: 300-450 gram guinea pig is obtained, and 5 mg/kg reserpine is injected on the belly 18˜24 hours prior to the experiment. Upon hitting the guinea pig into comatose, the artery at the neck is cut and the blood released, and the chest is immediately cut open and the respiratory tract (approximately 4 centimeters long) is taken along the neck and placed in a cultivation dish containing Krems solution at room temperature and connected to mixed gas of 95% oxygen and 5% carbon dioxide. The surrounding tissues are carefully removed, then the respiratory tract is cut to spiral shape that contains 3 to 4 bone coils at each turn, and then cut in two halves, with the two sides clamped by the frog-heart tweezer; one end is stabilized at the bottom and placed in the organ rinser filled with 20 ml of Krebs solution with mixed gas and the temperature maintained at 32° C.; the other side is connected to the force transducer, and even-length isometric contraction is recorded through the Coulbourn At-High-Speed Videograph. The sample is given 2 grams of tension, and upon balancing, the following experiment is conducted.
The respiratory tract used in the experiment is first balanced (approximately one hour) to derive a reflex tension, and then for each half of the respiratory tract, cumulative concentration-response curve for the isoproterenol is completed twice. In the first curve, no synthetic testing compound is added, and is used as the control unit; in the second curve, the synthetic compound first added for an hour before implementing the cumulative concentration-response curve, which is the experimental unit.

For assay [6], the system named is α-adrenoceptor. Particulars: versus L-phenylephrine contraction of detached chest artery; Schild plot regression. On the procedure: Same as the blood vein relaxation experiment, detached primary artery taken from the guinea pig is given 1 gram of tension, and upon balancing for 60 minutes, L-phenylephrine is administered directly from low concentration to high using 0.5 log unit to gradually increase until the maximum reaction is reached, and this act as the control unit. Then different concentrations of the synthetic testing compound, 10^−7 M, 10^−6 M, or 10^−5 M, are used, and upon 30 minutes of reaction, L-phenylephrine is used again to complete the cumulative dose. The EC50 value may be obtained from observation of the suppressing effects caused by different concentrations of the synthetic testing compound.
It is same as the calculation method used in the experiment of the detached right auricle.

T1 sequence (Q8K4Z4 whole entry): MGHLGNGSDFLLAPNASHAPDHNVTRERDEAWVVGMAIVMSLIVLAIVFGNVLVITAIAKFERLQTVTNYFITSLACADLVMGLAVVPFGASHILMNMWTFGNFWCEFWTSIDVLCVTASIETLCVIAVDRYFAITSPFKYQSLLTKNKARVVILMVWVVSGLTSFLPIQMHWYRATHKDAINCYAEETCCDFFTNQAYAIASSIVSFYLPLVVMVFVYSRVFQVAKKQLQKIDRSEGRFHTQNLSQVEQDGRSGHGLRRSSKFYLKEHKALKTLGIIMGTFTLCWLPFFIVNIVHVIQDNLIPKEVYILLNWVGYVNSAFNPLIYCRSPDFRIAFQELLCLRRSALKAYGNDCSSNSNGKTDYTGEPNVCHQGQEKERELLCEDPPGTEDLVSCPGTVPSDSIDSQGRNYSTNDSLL

On to `CCCCCCCCC(=O)NCc1ccc(OCC(O)CNCCOc2ccccc2OC)c(OC)c1` (stereo not shown) [Compound 3], for which the Blood pressure change is reported as −32.6 ± 5.5 mmHg in assay [1] (1 mg/kg intravenous), −41.7 ± 4.0 mmHg in assay [1] (1.5 mg/kg intravenous) and −52.0 ± 8.0 mmHg in assay [1] (3 mg/kg intravenous). Further, the results for the “percentage of relaxation in comparison with the basal value” (from here on “percentage of relaxation in comparison”) in assay [2] (10^−5 M) and in assay [2] (10^−6 M) were −40.7 ± 8.4% and −34.5 ± 4.2%, respectively. Further, in assay [3], the “PA2 value β1 right atrium” value is given as 7.80. Moreover, the “PA2 value β1 left atrium” value in assay [4] came to 7.61. Further, the “PA2 value β2” value in assay [5] was found to be 6.81. For the same compound, in assay [6], the “PA2 value α” value worked out at 7.12.
As for `C=CCc1ccc(OCC(O)CNCCOc2ccccc2OC)c(OC)c1` (stereo not shown) [Compound 1, 1-[(4-allyl-2-methoxy)phenoxy}-3-[(2-methoxyphenoxyethyl)amino}-propanol], the results for the Blood pressure change in assay [1] (1 mg/kg intravenous), in assay [1] (1.5 mg/kg intravenous) and in assay [1] (3 mg/kg intravenous) were −23.1 ± 4.5 mmHg, −30.1 ± 3.6 mmHg and −38.1 ± 5.1 mmHg, respectively. The “percentage of relaxation in comparison” value in assay [2] (10^−4 M) is −62.8 ± 8.7^a %; in assay [2] (10^−5 M) it was −51.7 ± 6.8%; in assay [2] (10^−6 M), −39.7 ± 9.1%. Also, the “PA2 value β1 right atrium” value in assay [3] came to 7.83. Further, the “PA2 value β1 left atrium” value in assay [4] was found to be 7.95. The “PA2 value β2” value in assay [5] stood at 6.59. Moreover, in assay [6], the “PA2 value α” value is recorded as 8.12.
As for `CC=Cc1ccc(OCC(O)CNCCOc2ccccc2OC)c(OC)c1` (stereo not shown) [Compound 4, 1-[(4-propenyl-2-methoxy)-phenoxy]-3-[(2-methoxyphenoxyethyl)amino]-propanol], the Blood pressure change in assay [1] (1 mg/kg intravenous) is −24.9 ± 3.2 mmHg; in assay [1] (1.5 mg/kg intravenous), −29.5 ± 5.1 mmHg; in assay [1] (3 mg/kg intravenous) it was −36.4 ± 7.2 mmHg. The results for the “percentage of relaxation in comparison” value in assay [2] (10^−5 M) and in assay [2] (10^−6 M) were −30.1 ± 3.6% and −23.4 ± 3.7%, respectively. In addition, the “PA2 value β1 right atrium” value in assay [3] is listed as 7.63. In assay [4], the “PA2 value β1 left atrium” value came to 7.89. The “PA2 value β2” value in assay [5] came out at 6.13. Also, the “PA2 value α” value in assay [6] amounted to 7.20.
Take `CCOC(=O)C=Cc1ccc(OCC(O)CNCCOc2ccccc2OC)c(OC)c1` (stereo not shown) [Compound 2, 1-[(4-propenoic acid ethyl ester-2-methoxy)phenoxy]-3-[(2-methoxyphenoxyethyl)amino]-propanol]: the Blood pressure change in assay [1] (1 mg/kg intravenous) was −37.5 ± 5.2 mmHg; in assay [1] (1.5 mg/kg intravenous), −44.2 ± 8.0 mmHg; in assay [1] (3 mg/kg intravenous), −52.4 ± 4.5 mmHg. In addition, the figures for the “percentage of relaxation in comparison” value in assay [2] (10^−5 M) and in assay [2] (10^−6 M) were −42.1 ± 9.1% and −35.9 ± 7.9%, respectively. Also, the “PA2 value β1 right atrium” value in assay [3] is listed as 8.02. Further, the “PA2 value β1 left atrium” value in assay [4] is reported as 8.16. Moreover, in assay [5], the “PA2 value β2” value is 7.05. Also, in assay [6], the “PA2 value α” value is given as 7.95.

The values are drawn from patent publication US6518450B2, “Guaiacoxypropanolamines with alpha/beta adrenergic blocking activity” (priority 1997, dated 2003).
